pIC50: −log10 of the molar value.
What was measured:
mock-infected MT-4 cells = assay: Cytotoxicity in mock-infected MT-4 cells (MTT); assay type: cell-based; settings: concentration reducing absorbance of mock-infected MT-4 control by 50%
HIV-1 = settings: for pIC50: dose achieving 50% protection of HIV-infected MT-4 cells, MTT, OD 540 nm; for SI: selectivity index, ratio of CC50 to IC50
Experimental: A rapid, sensitive and automated assay procedure was used for the in vitro evaluation of anti-HIV agents. […] Inhibition of the HIV-induced cytopathic effect was used as the end point. The viability of both HIV- and mock-infected cells was assessed spectrophotometrically via the in situ reduction of 3-(4,5-dimethylthiazol-2-yl)-2,5-diphenyltetrazolium bromide (MTT). […] The percent protection achieved by the compound in HIV-infected cells was calculated by the following formula:
[formula] expressed in %, whereby (ODT)HIV is the optical density measured with a given concentration of the test compound in HIV-infected cells; (ODC)HIV is the optical density measured for the control untreated HIV-infected cells; (ODC)MOCK is the optical density measured for the control untreated mock-infected cells; all optical density values were determined at 540 nm. […] The ratio of CC50 to IC50 was defined as the selectivity index (SI).

Structure (SMILES)	CC50 (mock-infected MT-4 cells)	pIC50 (HIV-1)	SI (HIV-1)
Cc1cc(C)cc(Sc2c(CSCc3cccs3)c(C)[nH]c(=O)c2I)c1 [compound 8]	> 100 µM	8.00	>10000
Cc1cc(C)cc(Sc2c(/C=N/OCc3ccccc3)c(C)[nH]c(=O)c2I)c1 [compound 31]	> 100 µM	8.10	>12589
CON=Cc1c(C)[nH]c(=O)c(I)c1Sc1cc(C)cc(C)c1 [compound 46]	> 100 µM	8.70	>50119
CCc1c(C)[nH]c(=O)c(I)c1Oc1cc(C)cc(CCl)c1 [compound 81]	13 µM	8.20	1995
CCc1c(C)[nH]c(=O)c(I)c1Oc1cc(C)cc(/C=C/C#N)c1 [compound 83]	8 µM	8.60	3162
CCc1c(C)[nH]c(=O)c(I)c1Sc1cccc(C)c1 [compound 88]	> 100 µM	8.60	>39811
Cc1cc(C)cc(Oc2c(CSCc3ccccc3)c(C)[nH]c(=O)c2I)c1 [compound 92]	> 32 µM	8.20	>5012
CCOC(=O)CSCc1c(C)[nH]c(=O)c(I)c1Oc1cc(C)cc(C)c1 [compound 99]	> 100 µM	8.00	>10000
CCc1c(COC(N)=O)[nH]c(=O)c(I)c1Oc1cc(C)cc(C)c1 [compound 105]	> 10 µM	8.70	>5012
CCc1c(C)[nH]c(=O)c(Br)c1Sc1cc(C)cc(C)c1 [compound 109]	32 µM	8.60	12589
CCc1c(C)[nH]c(=O)c(I)c1Sc1cc(Cl)cc(Cl)c1 [compound 115]	8 µM	8.60	3162
CCc1c(C)[nH]c(=O)c(I)c1Oc1cccc(N)c1 [compound 121]	> 100 µM	8.00	>10000
CCSCc1c(C)[nH]c(=O)c(I)c1Oc1cc(C)cc(C)c1 [compound 124]	> 10 µM	8.89	>7943
Cc1cc(C)cc(Oc2c(C=CC#N)c(C)[nH]c(=O)c2I)c1 [compound 140]	> 10 µM	8.20	>1585
Cc1cc(C)cc(Oc2c(CNC(=O)c3cc4ccccc4o3)c(C)[nH]c(=O)c2I)c1 [compound 143]	> 10 µM	8.20	>1585
CCc1c(CCCO)[nH]c(=O)c(I)c1Oc1cc(C)cc(C)c1 [compound 217]	> 10 µM	8.20	>1585
CCOC(=O)NCc1c(C)[nH]c(=O)c(I)c1Oc1cc(C)cc(C)c1 [compound 218]	> 10 µM	8.10	>1259
Cc1cc(C)cc(Oc2c(CNC=O)c(C)[nH]c(=O)c2I)c1 [compound 219]	> 32 µM	8.00	>3162
Cc1cccc(Sc2c3c([nH]c(=O)c2I)CCCCC3)c1 [compound 221]	> 20 µM	8.20	>3162
Cc1cccc(Sc2c3c([nH]c(=O)c2I)CCCC3)c1 [compound 222]	2 µM	8.10	251
CCc1c(C)[nH]c(=O)c(C2CC2)c1Oc1cc(C)cc(C)c1 [compound 230]	8 µM	8.20	1259
CON=Cc1c(C)[nH]c(=O)c(I)c1Oc1cc(C)cc(C)c1 [compound 232]	> 32 µM	8.20	>5012
Cc1cc(C)cc(Oc2c(CCO)c(C)[nH]c(=O)c2I)c1 [compound 241]	> 100 µM	8.80	>63096
Cc1cc(C)cc(Oc2c(CCCO)c(C)[nH]c(=O)c2I)c1 [compound 242]	> 100 µM	9.22	>158489
Cc1cc(C)cc(Oc2c(COCc3ccsc3)c(C)[nH]c(=O)c2I)c1 [compound 244]	> 100 µM	8.40	>25119

Structure (SMILES)	CC50 (mock-infected MT-4 cells)	pIC50 (HIV-1)	SI (HIV-1)
Cc1cc(C)cc(Oc2c(COCc3ccccc3)c(C)[nH]c(=O)c2I)c1 [compound 245]	> 100 µM	8.20	>15849
COc1ccccc1Cc1c(C)[nH]c(=O)c(I)c1Oc1cc(C)cc(C)c1 [compound 249]	> 32 µM	8.89	>25119
Cc1cc(C)cc(Oc2c(CCCOCc3ccccc3)c(C)[nH]c(=O)c2I)c1 [compound 250]	25 µM	8.30	5012
COCCOCc1c(C)[nH]c(=O)c(I)c1Oc1cc(C)cc(C)c1 [compound 253]	> 10 µM	8.80	>6310
Cc1cc(C)cc(Oc2c(COCCO)c(C)[nH]c(=O)c2I)c1 [compound 254]	> 32 µM	8.70	>15849
CCOCc1c[nH]c(=O)c(I)c1Oc1cc(C)cc(C)c1 [compound 256]	> 10 µM	8.70	>5012
COCCc1c(C)[nH]c(=O)c(I)c1Oc1cc(C)cc(C)c1 [compound 264]	> 10 µM	9.00	>10000
CCc1c(C)[nH]c(=O)c(SC)c1Oc1cc(C)cc(C)c1 [compound 272]	25 µM	8.70	12589
CCc1c(C)[nH]c(=O)c(OC)c1Oc1cc(C)cc(C)c1 [compound 277]	> 100 µM	8.60	>39811
CCc1c(C)[nH]c(=O)c(Sc2ccccc2)c1Oc1cc(C)cc(C)c1 [compound 280]	25 µM	8.00	2512
CCc1c(C)[nH]c(=O)c(Br)c1Oc1cc(C)cc(C)c1 [compound 284]	> 10 µM	8.70	>5012
CCc1c(C)[nH]c(=O)c(I)c1Cc1cccc(C)c1 [compound 286]	> 32 µM	8.60	>12589
C=Cc1cccc(Oc2c(CC)c(C)[nH]c(=O)c2I)c1 [compound 296]	25 µM	8.70	12589
CCc1c(C)[nH]c(=O)c(I)c1Oc1cccc([N+](=O)[O-])c1 [compound 297]	> 32 µM	8.40	>7943
CCc1c(C)[nH]c(=O)c(I)c1Oc1cccc(/C=C/C=C/C#N)c1 [compound 299]		8.60	32
CCc1c(C)[nH]c(=O)c(I)c1Oc1cccc(C)c1 [compound 306]	> 32 µM	8.80	>19953
CCc1c(C)[nH]c(=O)c(I)c1Oc1cccc(Br)c1 [compound 307]	> 32 µM	8.30	>6310
CCc1c(C)[nH]c(=O)c(I)c1Oc1cccc(C=CC=NO)c1 [compound 309]	10 µM	8.20	1585
CCc1c[nH]c(=O)c(I)c1Oc1cccc(C)c1 [compound 314]	> 32 µM	8.10	>3981
CCc1c(C)[nH]c(=O)c(I)c1Oc1cccc(/C=C/C#N)c1 [compound 319]	> 100 µM	8.70	>50119
CCc1c(C)[nH]c(=O)c(I)c1Oc1cccc(C=O)c1 [compound 321]	> 100 µM	8.20	>15849
CCc1c(C)[nH]c(=O)c(I)c1Oc1cccc(CO)c1 [compound 322]	> 100 µM	8.20	>15849
CCOC(=O)c1c(Oc2cc(C)cc(C)c2)c(CC)c(C)[nH]c1=O [compound 324]	32 µM	8.30	6310
CCc1c(C)[nH]c(=O)c(I)c1Oc1ccccc1 [compound 328]	> 100 µM	8.80	>63096
Cc1cc(C)cc(Oc2c(CSCc3ccco3)c(C)[nH]c(=O)c2I)c1 [compound 375]	> 100 µM	8.89	>79433

From patent publication US7115608B2, “Pyridinone and pyridinethione derivatives having HIV inhibiting properties” (Centre National de la Recherche Schentifique, priority 2000, dated 2006)
